What all share (assay): FLIPR calcium imaging in transfected HEK293 PEAKrapid Gα[…]i/o44 cells, dose-response with mock control
Common to all, as to format: cell-based

One assay addresses T1, TAS2R14 (Homo sapiens, UniProt Q9NYV8).
T1 construct: TAS2R cDNA cloned 3′ of the first 45 amino acids of the rat somatostatin receptor 3
T1 sequence (Q9NYV8 1-317): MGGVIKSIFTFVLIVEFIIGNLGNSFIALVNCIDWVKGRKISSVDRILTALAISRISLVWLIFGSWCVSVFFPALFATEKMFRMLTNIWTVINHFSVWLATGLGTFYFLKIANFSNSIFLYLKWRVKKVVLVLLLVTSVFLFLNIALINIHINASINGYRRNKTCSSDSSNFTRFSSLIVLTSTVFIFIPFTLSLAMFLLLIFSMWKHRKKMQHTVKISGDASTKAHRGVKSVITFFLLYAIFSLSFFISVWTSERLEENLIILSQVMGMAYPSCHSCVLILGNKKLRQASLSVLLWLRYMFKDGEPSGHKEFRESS

The target in the next assay is T2, TAS2R20 (Homo sapiens, UniProt P59543).
T2 construct: TAS2R cDNA cloned 3′ of the first 45 amino acids of the rat somatostatin receptor 3
T2 sequence (P59543 1-309): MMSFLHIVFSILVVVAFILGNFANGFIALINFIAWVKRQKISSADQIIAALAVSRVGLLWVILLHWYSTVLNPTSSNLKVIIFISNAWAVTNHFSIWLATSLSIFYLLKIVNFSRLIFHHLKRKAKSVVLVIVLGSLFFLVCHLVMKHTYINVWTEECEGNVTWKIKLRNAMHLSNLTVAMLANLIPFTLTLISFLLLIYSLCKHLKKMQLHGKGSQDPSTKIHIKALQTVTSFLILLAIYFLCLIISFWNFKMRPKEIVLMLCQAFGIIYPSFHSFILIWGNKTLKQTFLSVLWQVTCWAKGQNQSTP

A further assay concerns the target T3, TAS2R39 (Homo sapiens, UniProt P59534).
T3 construct: TAS2R cDNA cloned 3′ of the first 45 amino acids of the rat somatostatin receptor 3
T3 sequence (P59534 1-338): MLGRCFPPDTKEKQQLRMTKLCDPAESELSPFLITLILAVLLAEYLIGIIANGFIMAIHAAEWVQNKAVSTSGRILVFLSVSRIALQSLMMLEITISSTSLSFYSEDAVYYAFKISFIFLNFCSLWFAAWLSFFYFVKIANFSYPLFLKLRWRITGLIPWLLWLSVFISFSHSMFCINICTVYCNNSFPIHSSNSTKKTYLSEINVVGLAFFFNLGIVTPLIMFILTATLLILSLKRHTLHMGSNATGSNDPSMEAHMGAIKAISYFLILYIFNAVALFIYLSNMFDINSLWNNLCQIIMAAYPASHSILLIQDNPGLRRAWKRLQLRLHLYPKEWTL

On to `COc1cc(C=O)ccc1O` [vanillin, 4-hydroxy-3-methoxybenzaldehyde], for which the results for the EC50 at TAS2R14, on TAS2R20 and on TAS2R39 were 570 ± 110 µM, 530 ± 90 µM and 870 ± 190 µM, respectively.

Values taken from PMC8298857, “Vanillin Activates Human Bitter Taste Receptors TAS2R14, TAS2R20, and TAS2R39” (Frontiers in Nutrition, 2021).
